Test system: Rattus norvegicus
Assay: Antiinflammatory activity in Albino rat assessed as reduction of carrageenan-induced paw volume at 20 mg/kg, po administered 1 hr before carrageenan challenge measured after 24 hrs (reference value: 1.39 +/- 0.053 ml)
Assay type: functional

SMILES	Activity
O=C(O)CCC1=C(c2ccccc2)NC(=S)NC1c1ccco1 (stereo not given)	1.16 mL
Cc1ccc(C2=C(CCC(=O)O)C(c3ccco3)NC(=S)N2)cc1 (stereo not given)	1.19 mL
O=C(O)CCC1=C(c2ccc(Cl)cc2)NC(=S)NC1c1ccccc1O (stereo not given)	1.46 mL
COc1ccc(C2=C(CCC(=O)O)C(c3ccccc3O)NC(=S)N2)cc1 (stereo not given)	1.2 mL
O=C(O)CCC1=C(c2ccc(Cl)cc2)NC(=S)NC1c1ccco1 (stereo not given)	1.39 mL
COc1cc(C2NC(=S)NC(c3ccc(C)cc3)=C2CCC(=O)O)ccc1O (stereo not given)	1.55 mL
O=C(O)Cc1ccccc1Nc1c(Cl)cccc1Cl [DICLOFENAC]	1.51 mL
O=C(O)CCC1=C(c2ccc(F)cc2)NC(=S)NC1c1ccco1 (stereo not given)	1.48 mL
O=C(O)CCC1=C(c2ccccc2)NC(=S)NC1c1ccccc1O (stereo not given)	1.36 mL
O=C(O)CCC1=C(c2ccc(Cl)cc2)NC(=S)NC1c1ccccn1 (stereo not given)	1.3 mL
COc1cc(C2NC(=S)NC(c3ccc(C)cc3)=C2CCC(=O)O)cc(OC)c1OC (stereo not given)	1.54 mL

Test system: Rattus norvegicus
Assay: Antiinflammatory activity in Albino rat assessed as reduction of carrageenan-induced paw volume at 20 mg/kg, po administered 1 hr before carrageenan challenge measured after 2 hrs (reference value: 1.905 +/- 0.046 ml)
Assay type: functional

SMILES	Activity
O=C(O)CCC1=C(c2ccccc2)NC(=S)NC1c1ccco1 (stereo not given)	1.49 mL
Cc1ccc(C2=C(CCC(=O)O)C(c3ccco3)NC(=S)N2)cc1 (stereo not given)	1.37 mL
O=C(O)CCC1=C(c2ccc(Cl)cc2)NC(=S)NC1c1ccccc1O (stereo not given)	1.62 mL
COc1ccc(C2=C(CCC(=O)O)C(c3ccccc3O)NC(=S)N2)cc1 (stereo not given)	1.39 mL
O=C(O)CCC1=C(c2ccc(Cl)cc2)NC(=S)NC1c1ccco1 (stereo not given)	1.56 mL
COc1cc(C2NC(=S)NC(c3ccc(C)cc3)=C2CCC(=O)O)ccc1O (stereo not given)	1.87 mL
O=C(O)Cc1ccccc1Nc1c(Cl)cccc1Cl [DICLOFENAC]	1.56 mL
O=C(O)CCC1=C(c2ccc(F)cc2)NC(=S)NC1c1ccco1 (stereo not given)	1.63 mL
O=C(O)CCC1=C(c2ccccc2)NC(=S)NC1c1ccccc1O (stereo not given)	1.36 mL
O=C(O)CCC1=C(c2ccc(Cl)cc2)NC(=S)NC1c1ccccn1 (stereo not given)	1.49 mL
COc1cc(C2NC(=S)NC(c3ccc(C)cc3)=C2CCC(=O)O)cc(OC)c1OC (stereo not given)	1.63 mL

Test system: Rattus norvegicus
Assay: Antiinflammatory activity in Albino rat assessed as inhibition of carrageenan-induced paw volume at 20 mg/kg, po administered 1 hr before carrageenan challenge measured after 3 hrs
Assay type: functional

SMILES	inhibition in vivo at 20 mg/kg
O=C(O)CCC1=C(c2ccccc2)NC(=S)NC1c1ccco1 (stereo not given)	9.81%
Cc1ccc(C2=C(CCC(=O)O)C(c3ccco3)NC(=S)N2)cc1 (stereo not given)	10.4%
O=C(O)CCC1=C(c2ccc(Cl)cc2)NC(=S)NC1c1ccccc1O (stereo not given)	1.22%
COc1ccc(C2=C(CCC(=O)O)C(c3ccccc3O)NC(=S)N2)cc1 (stereo not given)	20.9%
O=C(O)CCC1=C(c2ccc(Cl)cc2)NC(=S)NC1c1ccco1 (stereo not given)	5.52%
O=C(O)Cc1ccccc1Nc1c(Cl)cccc1Cl [DICLOFENAC]	20.9%
O=C(O)CCC1=C(c2ccc(F)cc2)NC(=S)NC1c1ccco1 (stereo not given)	3.68%
O=C(O)CCC1=C(c2ccccc2)NC(=S)NC1c1ccccc1O (stereo not given)	12.9%
O=C(O)CCC1=C(c2ccc(Cl)cc2)NC(=S)NC1c1ccccn1 (stereo not given)	5.52%
COc1cc(C2NC(=S)NC(c3ccc(C)cc3)=C2CCC(=O)O)cc(OC)c1OC (stereo not given)	15.9%

Test system: Rattus norvegicus
Assay: Antiinflammatory activity in Albino rat assessed as reduction of carrageenan-induced paw volume at 20 mg/kg, po administered 1 hr before carrageenan challenge measured after 4 hrs (reference value: 1.44 +/- 0.046 ml)
Assay type: functional

SMILES	Activity
O=C(O)CCC1=C(c2ccccc2)NC(=S)NC1c1ccco1 (stereo not given)	1.36 mL
Cc1ccc(C2=C(CCC(=O)O)C(c3ccco3)NC(=S)N2)cc1 (stereo not given)	1.38 mL
O=C(O)CCC1=C(c2ccc(Cl)cc2)NC(=S)NC1c1ccccc1O (stereo not given)	1.58 mL
COc1ccc(C2=C(CCC(=O)O)C(c3ccccc3O)NC(=S)N2)cc1 (stereo not given)	1.33 mL
O=C(O)CCC1=C(c2ccc(Cl)cc2)NC(=S)NC1c1ccco1 (stereo not given)	1.47 mL
COc1cc(C2NC(=S)NC(c3ccc(C)cc3)=C2CCC(=O)O)ccc1O (stereo not given)	1.69 mL
O=C(O)Cc1ccccc1Nc1c(Cl)cccc1Cl [DICLOFENAC]	1.34 mL
O=C(O)CCC1=C(c2ccc(F)cc2)NC(=S)NC1c1ccco1 (stereo not given)	1.56 mL
O=C(O)CCC1=C(c2ccccc2)NC(=S)NC1c1ccccc1O (stereo not given)	1.49 mL
O=C(O)CCC1=C(c2ccc(Cl)cc2)NC(=S)NC1c1ccccn1 (stereo not given)	1.6 mL
COc1cc(C2NC(=S)NC(c3ccc(C)cc3)=C2CCC(=O)O)cc(OC)c1OC (stereo not given)	1.44 mL

Test system: Rattus norvegicus
Assay: Antiinflammatory activity in Albino rat assessed as inhibition of carrageenan-induced paw volume at 20 mg/kg, po administered 1 hr before carrageenan challenge measured after 24 hrs
Assay type: functional

SMILES	inhibition in vivo at 20 mg/kg
O=C(O)CCC1=C(c2ccccc2)NC(=S)NC1c1ccco1 (stereo not given)	16.5%
Cc1ccc(C2=C(CCC(=O)O)C(c3ccco3)NC(=S)N2)cc1 (stereo not given)	14.4%
COc1ccc(C2=C(CCC(=O)O)C(c3ccccc3O)NC(=S)N2)cc1 (stereo not given)	13.7%
O=C(O)CCC1=C(c2ccccc2)NC(=S)NC1c1ccccc1O (stereo not given)	2.15%
O=C(O)CCC1=C(c2ccc(Cl)cc2)NC(=S)NC1c1ccccn1 (stereo not given)	6.47%

Test system: Rattus norvegicus
Assay: Antiinflammatory activity in Albino rat assessed as inhibition of carrageenan-induced paw volume at 20 mg/kg, po administered 1 hr before carrageenan challenge measured after 4 hrs
Assay type: functional

SMILES	inhibition in vivo at 20 mg/kg
O=C(O)CCC1=C(c2ccccc2)NC(=S)NC1c1ccco1 (stereo not given)	5.55%
Cc1ccc(C2=C(CCC(=O)O)C(c3ccco3)NC(=S)N2)cc1 (stereo not given)	4.16%
COc1ccc(C2=C(CCC(=O)O)C(c3ccccc3O)NC(=S)N2)cc1 (stereo not given)	7.63%
O=C(O)Cc1ccccc1Nc1c(Cl)cccc1Cl [DICLOFENAC]	6.94%

Test system: Rattus norvegicus
Assay: Antiinflammatory activity in Albino rat assessed as inhibition of carrageenan-induced paw volume at 20 mg/kg, po administered 1 hr before carrageenan challenge measured after 2 hrs
Assay type: functional

SMILES	inhibition in vivo at 20 mg/kg
O=C(O)CCC1=C(c2ccccc2)NC(=S)NC1c1ccco1 (stereo not given)	21.8%
Cc1ccc(C2=C(CCC(=O)O)C(c3ccco3)NC(=S)N2)cc1 (stereo not given)	28.1%
O=C(O)CCC1=C(c2ccc(Cl)cc2)NC(=S)NC1c1ccccc1O (stereo not given)	14.7%
COc1ccc(C2=C(CCC(=O)O)C(c3ccccc3O)NC(=S)N2)cc1 (stereo not given)	27%
O=C(O)CCC1=C(c2ccc(Cl)cc2)NC(=S)NC1c1ccco1 (stereo not given)	17.9%
COc1cc(C2NC(=S)NC(c3ccc(C)cc3)=C2CCC(=O)O)ccc1O (stereo not given)	1.57%
O=C(O)Cc1ccccc1Nc1c(Cl)cccc1Cl [DICLOFENAC]	17.9%
O=C(O)CCC1=C(c2ccc(F)cc2)NC(=S)NC1c1ccco1 (stereo not given)	14.2%
O=C(O)CCC1=C(c2ccccc2)NC(=S)NC1c1ccccc1O (stereo not given)	28.6%
O=C(O)CCC1=C(c2ccc(Cl)cc2)NC(=S)NC1c1ccccn1 (stereo not given)	21.8%
COc1cc(C2NC(=S)NC(c3ccc(C)cc3)=C2CCC(=O)O)cc(OC)c1OC (stereo not given)	14.2%

Test system: Rattus norvegicus
Assay: Antiinflammatory activity in Albino rat assessed as reduction of carrageenan-induced paw volume at 20 mg/kg, po administered 1 hr before carrageenan challenge measured after 1 hr (reference value: 1.925 +/- 0.1011 ml)
Assay type: functional

SMILES	Activity
O=C(O)CCC1=C(c2ccccc2)NC(=S)NC1c1ccco1 (stereo not given)	1.37 mL
Cc1ccc(C2=C(CCC(=O)O)C(c3ccco3)NC(=S)N2)cc1 (stereo not given)	1.29 mL
O=C(O)CCC1=C(c2ccc(Cl)cc2)NC(=S)NC1c1ccccc1O (stereo not given)	1.74 mL
COc1ccc(C2=C(CCC(=O)O)C(c3ccccc3O)NC(=S)N2)cc1 (stereo not given)	1.38 mL
O=C(O)CCC1=C(c2ccc(Cl)cc2)NC(=S)NC1c1ccco1 (stereo not given)	1.34 mL
COc1cc(C2NC(=S)NC(c3ccc(C)cc3)=C2CCC(=O)O)ccc1O (stereo not given)	1.96 mL
O=C(O)Cc1ccccc1Nc1c(Cl)cccc1Cl [DICLOFENAC]	1.51 mL
O=C(O)CCC1=C(c2ccc(F)cc2)NC(=S)NC1c1ccco1 (stereo not given)	1.45 mL
O=C(O)CCC1=C(c2ccccc2)NC(=S)NC1c1ccccc1O (stereo not given)	1.29 mL
O=C(O)CCC1=C(c2ccc(Cl)cc2)NC(=S)NC1c1ccccn1 (stereo not given)	1.5 mL
COc1cc(C2NC(=S)NC(c3ccc(C)cc3)=C2CCC(=O)O)cc(OC)c1OC (stereo not given)	1.53 mL

Test system: Rattus norvegicus
Assay: Antiinflammatory activity in Albino rat assessed as inhibition of carrageenan-induced paw volume at 20 mg/kg, po administered 1 hr before carrageenan challenge measured after 1 hr
Assay type: functional

SMILES	inhibition in vivo at 20 mg/kg
O=C(O)CCC1=C(c2ccccc2)NC(=S)NC1c1ccco1 (stereo not given)	28.8%
Cc1ccc(C2=C(CCC(=O)O)C(c3ccco3)NC(=S)N2)cc1 (stereo not given)	33%
O=C(O)CCC1=C(c2ccc(Cl)cc2)NC(=S)NC1c1ccccc1O (stereo not given)	9.61%
COc1ccc(C2=C(CCC(=O)O)C(c3ccccc3O)NC(=S)N2)cc1 (stereo not given)	28.3%
O=C(O)CCC1=C(c2ccc(Cl)cc2)NC(=S)NC1c1ccco1 (stereo not given)	30.4%
O=C(O)Cc1ccccc1Nc1c(Cl)cccc1Cl [DICLOFENAC]	21.6%
O=C(O)CCC1=C(c2ccc(F)cc2)NC(=S)NC1c1ccco1 (stereo not given)	24.7%
O=C(O)CCC1=C(c2ccccc2)NC(=S)NC1c1ccccc1O (stereo not given)	33%
O=C(O)CCC1=C(c2ccc(Cl)cc2)NC(=S)NC1c1ccccn1 (stereo not given)	22.1%
COc1cc(C2NC(=S)NC(c3ccc(C)cc3)=C2CCC(=O)O)cc(OC)c1OC (stereo not given)	20.5%

Test system: Rattus norvegicus
Assay: Antiinflammatory activity in Albino rat assessed as reduction of carrageenan-induced paw volume at 20 mg/kg, po administered 1 hr before carrageenan challenge measured after 3 hrs (reference value: 1.63 +/- 0.059 ml)
Assay type: functional

SMILES	Activity
O=C(O)CCC1=C(c2ccccc2)NC(=S)NC1c1ccco1 (stereo not given)	1.47 mL
Cc1ccc(C2=C(CCC(=O)O)C(c3ccco3)NC(=S)N2)cc1 (stereo not given)	1.46 mL
O=C(O)CCC1=C(c2ccc(Cl)cc2)NC(=S)NC1c1ccccc1O (stereo not given)	1.61 mL
COc1ccc(C2=C(CCC(=O)O)C(c3ccccc3O)NC(=S)N2)cc1 (stereo not given)	1.29 mL
O=C(O)CCC1=C(c2ccc(Cl)cc2)NC(=S)NC1c1ccco1 (stereo not given)	1.54 mL
COc1cc(C2NC(=S)NC(c3ccc(C)cc3)=C2CCC(=O)O)ccc1O (stereo not given)	1.79 mL
O=C(O)Cc1ccccc1Nc1c(Cl)cccc1Cl [DICLOFENAC]	1.29 mL
O=C(O)CCC1=C(c2ccc(F)cc2)NC(=S)NC1c1ccco1 (stereo not given)	1.57 mL
O=C(O)CCC1=C(c2ccccc2)NC(=S)NC1c1ccccc1O (stereo not given)	1.42 mL
O=C(O)CCC1=C(c2ccc(Cl)cc2)NC(=S)NC1c1ccccn1 (stereo not given)	1.54 mL
COc1cc(C2NC(=S)NC(c3ccc(C)cc3)=C2CCC(=O)O)cc(OC)c1OC (stereo not given)	1.37 mL
